# Data from patent publication US20240109896A1, “FGFR KINASE INHIBITOR AND USE THEREOF” (YA THERAPEUTICS INC, priority 2021, published 2024).
# What was measured:
# [1] = test system: human gastric cancer cells (SNU-16); assay: Proliferation inhibition of human gastric cancer cells SNU-16 (CellTiter-Glo); assay type: cell-based; conditions: 72 h, SNU-16, 3 days
# Protocol: (§1) Using the CellTiter-Glo<TM>Live Cell Assay Kit, The inhibitory effect of the test compound on the proliferation of human gastric cancer cells (SNU-16) and FGFR3 high expression and FGFR3 fusion of FGFR3-TACC3 fused human bladder cancer cells (RT4) was determined. Among them, RT4 medium is added with fetal bovine serum and McCoy's 5A medium with a final concentration of 10%.
# (§2) Test steps: SNU-16 and RT4 cells that have reached 80% cell confluency were digested by trypsin, centrifuged and re-suspended for counting, and 3500 and 6000 cells/mL of SNU-16 and RT4 cell suspensions were prepared with medium, respectively. Add a 96-well cell culture plate (90 μL/well) and place in a cell culture incubator containing 5% CO2 at 37° C. […] The diluted compound stock solution was further diluted with SNU-16 and RT4 medium and the diluted mixture was transferred to the corresponding cell plates, respectively. […] Mix and centrifuge and then place in a cell culture incubator containing 5% CO2 for 3 days at 37° C. Take out the 96-well cell culture plate and add CellTiterGlo (CTG, Chemiluminescent Cell Viability Assay) reagent (100 L/well. Mix and centrifuge, and then incubate for 10 min at room temperature. After gentle shaking, the absorbance at 450 nm wavelength was determined on the SpectraMax M5 Reader, and the absorbance at 650 nm was used as a reference (i.e., 450 nm absorbance −650 nm absorbance) to calculate the suppression.
# Hep3B cells = assay: Human hepatoma cell Hep3B survival test (CellTiter-Glo); assay type: cell-based; conditions: Homo sapiens, treated 72 hours, read-out: inhibitory activity on Hep3B cell proliferation IC50
# Protocol: The Hep3B cell line of human liver cancer is derived from ATCC. Cells are supplemented with McCoy's 5A medium and additionally added fetal bovine serum (IOFBS). Cells are kept in the medium at 37° C., humidity at 95%, and carbon dioxide at 500. Hep3B cells were seeded in 96-well plates at a density of 3500 cells per well with a cell suspension volume of 90 μL per well and cultured at 37° C. in a cell culture incubator containing 500 CO2. […] The cells were then placed in a 37° C. incubator and treated with compounds for 72 hours.
# [2] = test system: human bladder cancer cells (RT4); assay: Proliferation inhibition of human bladder cancer cells RT4 (CellTiter-Glo); assay type: cell-based; conditions: RT4, 3 days
# Protocol: as §1, §2
# FGFR1 = FGFR1 (Homo sapiens, UniProt P11362); assay: In vitro activity inhibition test for kinase FGFR1
# Sequence of FGFR1 (P11362 22-822): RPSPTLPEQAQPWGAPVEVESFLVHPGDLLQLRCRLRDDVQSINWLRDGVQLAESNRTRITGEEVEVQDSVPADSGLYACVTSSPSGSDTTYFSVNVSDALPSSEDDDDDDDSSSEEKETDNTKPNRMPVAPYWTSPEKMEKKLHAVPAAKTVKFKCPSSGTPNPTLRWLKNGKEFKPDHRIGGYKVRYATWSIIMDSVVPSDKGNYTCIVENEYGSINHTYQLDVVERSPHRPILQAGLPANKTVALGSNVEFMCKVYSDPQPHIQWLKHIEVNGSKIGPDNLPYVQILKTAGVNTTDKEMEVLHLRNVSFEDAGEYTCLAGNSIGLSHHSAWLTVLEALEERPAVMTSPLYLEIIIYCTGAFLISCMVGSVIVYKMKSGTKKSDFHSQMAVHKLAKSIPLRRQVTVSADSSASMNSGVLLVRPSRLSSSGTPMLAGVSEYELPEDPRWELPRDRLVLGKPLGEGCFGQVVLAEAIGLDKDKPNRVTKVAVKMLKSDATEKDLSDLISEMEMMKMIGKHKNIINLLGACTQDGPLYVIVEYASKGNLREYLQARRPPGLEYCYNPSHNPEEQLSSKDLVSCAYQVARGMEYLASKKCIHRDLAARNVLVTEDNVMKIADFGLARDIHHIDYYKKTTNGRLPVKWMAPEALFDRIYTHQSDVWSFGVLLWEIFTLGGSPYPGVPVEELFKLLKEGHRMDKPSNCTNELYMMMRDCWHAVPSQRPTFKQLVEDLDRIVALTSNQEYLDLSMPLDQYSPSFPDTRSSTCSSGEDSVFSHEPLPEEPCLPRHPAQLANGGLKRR
# Protocol: (§3) In Vitro Activity Inhibition Test for Kinases FGFR1, FGFR2, FGFR3 and FGFR4
# (§4) The activity of FGFR1, FGFR2, FGFR3 and FGFR4 protein kinases was determined by Caliper mobility shift assay. Perform a 4-fold gradient dilution from a working concentration of 0.2 mM in DMSO, diluting 10 concentrations. Add 2 μL of compound to 78 μL of 1× compound buffer. There were 10 points each for the negative control and the positive control. Shake the board on the rocker for 20 min. […] The final concentration of DMSO was 0.5%.
# FGFR3 = FGFR3 (Homo sapiens, UniProt P22607); assay: In vitro activity inhibition test for kinase FGFR3;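 note: FGFR3 kinase activity read by Caliper mobility shift assay, compounds run as 10-point 4-fold dilution series, final DMSO 0.5%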
# Sequence of FGFR3 (P22607 23-806): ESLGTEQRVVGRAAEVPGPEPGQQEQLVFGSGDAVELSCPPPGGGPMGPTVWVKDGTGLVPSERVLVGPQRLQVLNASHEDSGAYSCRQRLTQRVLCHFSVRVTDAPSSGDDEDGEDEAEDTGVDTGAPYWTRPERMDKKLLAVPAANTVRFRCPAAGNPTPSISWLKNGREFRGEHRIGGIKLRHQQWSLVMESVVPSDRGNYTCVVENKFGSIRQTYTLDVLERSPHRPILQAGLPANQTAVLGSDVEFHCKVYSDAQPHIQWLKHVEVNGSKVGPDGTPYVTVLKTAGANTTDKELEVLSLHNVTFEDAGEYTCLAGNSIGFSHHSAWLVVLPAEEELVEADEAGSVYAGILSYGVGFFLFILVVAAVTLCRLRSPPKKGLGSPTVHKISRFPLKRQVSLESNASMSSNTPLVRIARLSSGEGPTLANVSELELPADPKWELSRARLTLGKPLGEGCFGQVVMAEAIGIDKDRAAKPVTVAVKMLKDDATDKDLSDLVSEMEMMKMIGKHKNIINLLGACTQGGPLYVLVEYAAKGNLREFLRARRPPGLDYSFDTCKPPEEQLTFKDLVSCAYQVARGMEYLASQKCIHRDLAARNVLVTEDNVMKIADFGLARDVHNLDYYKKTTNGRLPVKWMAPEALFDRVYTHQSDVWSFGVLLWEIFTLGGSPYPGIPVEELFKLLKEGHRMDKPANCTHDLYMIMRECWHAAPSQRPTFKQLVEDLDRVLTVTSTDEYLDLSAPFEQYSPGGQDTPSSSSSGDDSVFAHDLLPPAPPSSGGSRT
# Protocol: as §3, §4
# FGFR2 = FGFR2 (Homo sapiens, UniProt P21802); assay: In vitro activity inhibition test for kinase FGFR2; assay type: biochemical; conditions: kinase assay, 25° C.; read-out: Inhibition of separase IC50 (nM) FGFR2
# Sequence of FGFR2 (P21802 22-821): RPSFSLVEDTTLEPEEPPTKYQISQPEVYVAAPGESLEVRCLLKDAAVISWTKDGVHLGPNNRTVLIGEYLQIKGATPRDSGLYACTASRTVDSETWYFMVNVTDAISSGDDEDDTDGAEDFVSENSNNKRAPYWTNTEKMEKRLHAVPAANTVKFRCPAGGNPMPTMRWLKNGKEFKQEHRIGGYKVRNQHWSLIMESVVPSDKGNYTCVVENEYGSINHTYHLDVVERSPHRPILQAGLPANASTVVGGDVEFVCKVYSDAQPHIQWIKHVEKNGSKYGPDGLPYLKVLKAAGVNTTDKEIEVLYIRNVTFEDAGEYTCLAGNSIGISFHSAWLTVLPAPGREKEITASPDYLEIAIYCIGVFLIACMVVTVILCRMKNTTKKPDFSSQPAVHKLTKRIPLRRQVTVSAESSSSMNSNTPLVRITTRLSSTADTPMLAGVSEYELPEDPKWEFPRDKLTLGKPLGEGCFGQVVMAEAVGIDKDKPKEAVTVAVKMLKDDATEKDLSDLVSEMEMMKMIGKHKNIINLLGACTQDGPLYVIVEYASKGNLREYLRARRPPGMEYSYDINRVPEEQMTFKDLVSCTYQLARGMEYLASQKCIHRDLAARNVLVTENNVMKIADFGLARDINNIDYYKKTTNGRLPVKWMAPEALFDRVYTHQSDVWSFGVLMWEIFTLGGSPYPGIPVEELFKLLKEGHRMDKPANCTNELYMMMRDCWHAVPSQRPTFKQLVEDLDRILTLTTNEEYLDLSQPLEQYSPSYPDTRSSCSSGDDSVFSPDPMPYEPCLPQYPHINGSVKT
# hERG potassium channel = molecular target: T1, hERG potassium channel (Homo sapiens, UniProt Q12809); assay: Determination of potassium channel blockade of hERG (whole-cell patch clamp, Qpatch); assay type: cell-based; conditions: HEK293 cells stably expressing hERG, tail current, 24° C.
# T1 construct: host or cells: HEK293
# T1 sequence (Q12809 whole entry): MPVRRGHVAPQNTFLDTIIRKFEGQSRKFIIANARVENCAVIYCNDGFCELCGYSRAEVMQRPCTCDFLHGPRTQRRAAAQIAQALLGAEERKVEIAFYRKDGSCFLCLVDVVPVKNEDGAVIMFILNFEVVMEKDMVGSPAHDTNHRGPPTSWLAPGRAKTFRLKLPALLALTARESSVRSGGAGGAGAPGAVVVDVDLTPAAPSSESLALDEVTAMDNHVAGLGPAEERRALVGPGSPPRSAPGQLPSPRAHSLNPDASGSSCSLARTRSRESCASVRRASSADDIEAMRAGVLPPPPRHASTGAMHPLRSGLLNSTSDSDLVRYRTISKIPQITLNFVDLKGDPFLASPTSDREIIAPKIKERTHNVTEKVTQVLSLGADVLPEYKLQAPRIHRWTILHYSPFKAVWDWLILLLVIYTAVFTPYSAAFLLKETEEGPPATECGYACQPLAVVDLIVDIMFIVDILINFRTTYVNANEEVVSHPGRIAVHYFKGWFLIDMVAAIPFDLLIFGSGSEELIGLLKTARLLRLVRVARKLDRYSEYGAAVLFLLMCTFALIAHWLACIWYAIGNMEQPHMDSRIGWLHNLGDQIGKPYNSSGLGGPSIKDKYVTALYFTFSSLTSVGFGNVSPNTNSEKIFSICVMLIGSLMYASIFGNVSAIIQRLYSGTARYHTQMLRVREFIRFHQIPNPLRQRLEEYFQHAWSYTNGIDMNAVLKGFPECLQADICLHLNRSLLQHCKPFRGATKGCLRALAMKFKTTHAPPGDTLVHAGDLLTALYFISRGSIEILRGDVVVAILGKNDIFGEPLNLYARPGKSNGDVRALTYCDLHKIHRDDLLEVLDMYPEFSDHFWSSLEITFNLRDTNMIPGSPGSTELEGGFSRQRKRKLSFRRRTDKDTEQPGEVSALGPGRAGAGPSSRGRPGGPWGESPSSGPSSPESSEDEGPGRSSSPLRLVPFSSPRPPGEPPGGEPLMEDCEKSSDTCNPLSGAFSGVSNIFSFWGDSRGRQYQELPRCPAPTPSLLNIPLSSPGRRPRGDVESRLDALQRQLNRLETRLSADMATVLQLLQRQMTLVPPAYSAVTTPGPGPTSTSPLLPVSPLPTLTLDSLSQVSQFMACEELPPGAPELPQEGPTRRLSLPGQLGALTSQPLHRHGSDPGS
# Protocol: Example 59: Determination of Potassium Channel Blockade of hERG
# The experimental methods are in follows:
# extracellular fluid: 140 mM NaCl, 3.5 mM KCl, 1 mM MgCl2, 2 mM CaCl2, 10 mM D-glucose, 10 mM HEPES, 1.25 mM NaH2PO4, pH=7.40
# ISE Internal Solution: 20 mM KCl, 115 mM K-aspartate, 1 mM MgCl2, 5 mM EGTA, 10 mM HEPES, 2 mM Na2-ATP, pH=7.2
# Cell culture: HEK293 cell line with stable expression of hERG potassium channel was used, and hERG potassium channel cells were purchased from Creacell (catalog number: A-0320). It was cultured in DMEM medium containing 10 fetal bovine serum and 0.8 mg/mL G418 at 37° C. and a carbon dioxide concentration of 5%. Take out the old medium and wash once with PBS, then add 2 mL of TrypLE™ Express solution and incubate at 37° C. for about 1 min. When the cell detaches from the bottom of the dish, add approximately 5 mL of complete medium pre-warmed at 37° C. Gently pipette the cell suspension with a pipette to detach the aggregated cells. […]
# Each drug concentration is set for two administrations for at least 5 minutes. The tested compound and the compound-free external fluid acts on the cells sequentially from low to high concentration, and each cell uses the current detected in the compound-free exo-liquid as its own control group, and the detection of the two cells is repeated independently. […]
# FGFR4 = FGFR4 (Homo sapiens, UniProt P22455); assay: In vitro activity inhibition test for kinase FGFR4;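 note: caliper mobility shift assay of FGFR4 kinase activity, compounds tested as 10-point 4-fold dilution series with 0.5% DMSO final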
# Sequence of FGFR4 (P22455 22-802): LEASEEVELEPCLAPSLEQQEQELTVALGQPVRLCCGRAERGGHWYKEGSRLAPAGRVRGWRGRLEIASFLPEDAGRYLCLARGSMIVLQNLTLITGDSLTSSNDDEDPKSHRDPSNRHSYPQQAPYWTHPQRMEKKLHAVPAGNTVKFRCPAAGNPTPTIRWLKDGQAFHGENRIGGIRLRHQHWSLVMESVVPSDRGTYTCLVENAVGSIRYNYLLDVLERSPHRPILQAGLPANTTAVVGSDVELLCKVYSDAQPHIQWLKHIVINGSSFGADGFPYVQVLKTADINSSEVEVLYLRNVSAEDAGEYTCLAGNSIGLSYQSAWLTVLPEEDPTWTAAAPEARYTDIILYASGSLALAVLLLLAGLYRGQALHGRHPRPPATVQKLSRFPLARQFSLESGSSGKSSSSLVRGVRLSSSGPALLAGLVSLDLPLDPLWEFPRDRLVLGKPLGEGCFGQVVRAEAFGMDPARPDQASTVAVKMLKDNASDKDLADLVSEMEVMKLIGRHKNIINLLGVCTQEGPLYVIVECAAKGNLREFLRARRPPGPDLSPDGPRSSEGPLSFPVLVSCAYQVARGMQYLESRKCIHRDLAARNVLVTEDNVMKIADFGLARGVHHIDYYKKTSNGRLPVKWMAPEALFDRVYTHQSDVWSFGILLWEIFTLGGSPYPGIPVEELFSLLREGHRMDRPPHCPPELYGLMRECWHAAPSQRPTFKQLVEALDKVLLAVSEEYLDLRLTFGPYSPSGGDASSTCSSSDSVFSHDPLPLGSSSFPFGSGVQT
# Protocol: as §3, §4
smiles,measurement,setting,value
"CCN1CCN(c2ccc(Nc3cc(N(C)C(=O)Nc4c(Cl)c(OC)cc(OC)c4Cl)ncn3)cc2)CC1 [BGJ398, infigratinib, reference compound]",IC50,[1],0.572 nM
same,IC50,Hep3B cells,10 to 100 nM
same,IC50,"[2]; Homo sapiens, RT-4, 72 h",11.8 nM
"C=CC(=O)N1CC[C@H](n2nc(C#Cc3c(F)c(OC)cc(OC)c3F)c3c(N)n[nH]c(=O)c32)C1 [Compound 28, (S)-1-(1-acryloylpyrrolidin-3-yl)-4-amino-3-((2,6-difluoro-3,5-dimethoxyphenyl)ethynyl)-1,6-dihydro-7H-pyrazolo[3,4-d]pyridazin-7-one]",IC50,FGFR1,< 10 nM
same,IC50,[1],0.025 nM
same,IC50,FGFR3,< 10 nM
same,IC50,FGFR2,< 10 nM
same,inhibition effect on the hERG channel,hERG potassium channel,weak or no inhibition effect
same,IC50,"[2]; Homo sapiens, RT-4, 72 h",1.3 nM
same,IC50,FGFR4,< 10 nM
"C=CC(=O)N1CC[C@H](n2cc(-c3cc4cc(C)cc(OC)c4s3)c3c(N)n[nH]c(=O)c32)C1 [Compound 38, (S)-1-(1-acryloylpyrrolidin-3-yl)-4-amino-3-(7-methoxy-5-methylbenzo[b]thiophen-2-yl)-1,6-dihydro-7H-pyrrolo[2,3-d]pyridazin-7-one]",IC50,FGFR1,< 10 nM
same,IC50,[1],< 0.015 nM
same,IC50,FGFR3,< 10 nM
same,IC50,FGFR2,< 10 nM
same,inhibition effect on the hERG channel,hERG potassium channel,moderate inhibitory effect
same,IC50,Hep3B cells,< 10 nM
same,IC50,"[2]; Homo sapiens, RT-4, 72 h",3.4 nM
same,IC50,FGFR4,< 10 nM
COc1cc(OC)cc(N(CCNC(C)C)c2ccc3ncc(-c4cnn(C)c4)nc3c2)c1 [Erdafinib],IC50,[2],1.8 nM
"CCN1C(=O)N(c2c(F)c(OC)cc(OC)c2F)Cc2cnc3[nH]c(CN4CCOCC4)cc3c21 [Pemigatinib, reference compound]",IC50,[1],0.249 nM
same,IC50,Hep3B cells,10 to 100 nM
same,IC50,"[2]; Homo sapiens, RT-4, 72 h",6 nM
